Entries after “also recorded” stand apart in the source; their conditions may differ.
Legend:
[1] = system: DNA; test: formation of cross-links in DNA (general statements); assay type: biochemical; conditions: from induction of cytoplasmic and nuclear mutations
[2] = spectroscopic absorption properties; assay type: physicochemical; conditions: compared with psoralen
Source text: Compounds 1a and 1b have similar spectroscopic properties which differ markedly with respect to those of psoralen.

[3] = photochemical stability under ultraviolet irradiation; assay type: physicochemical; conditions: free in solution, ultraviolet irradiation up to an incident dose of 27 kJ/m2
[4] = system: DNA; test: complexation with DNA by absorption and emission spectroscopy; assay type: binding
[5] = system: DNA; test: thermal denaturation-renaturation of DNA modified in the presence of UVA; assay type: biochemical
Source text: Experiments of thermal denaturation-renaturation carried out on the DNA Modified by the compound 1a in the presence of UVA (incident dose ranging up to 27 Kj/m2) yielding values of the non-renaturating fraction of 100%.

[6] = system: DNA of cells of the wild type; test: direct biochemical verification of cross-linking in DNA of cells treated and irradiated at 365 nm; assay type: cell-based, yeast
Source text: Indeed, DNA of cells of the wild type were extracted immediately after treatment with products 1a, 1b at a concentration of 10^-5 M and irradiation with two doses of radiation at 365 nm (30% and 5% survival rate). […] If the DNA contains cross-links it renatures itself and is found in the double chain form separable by gradient density from single chain DNA.

[7] = system: Saccharomyces cerevisiae yeast; test: induction of lethal effects in yeast with 365 nm irradiation (UVA); assay type: cell-based
Protocol: (§1) This photobiological activity has in effect been defined by the induction of lethal effects, the induction of "small colony" cytoplasmic mutations (damage in the mitochondrial DNA) and the induction of nuclear mutations (reverse and forward). The experiments were conducted in the customary manner in conformity with the following references:
Thus, the dose of UVA must be between 2.5 and 5 times weaker in the case of compounds 1a and 1b than in the case of 8-MOP to attain the same survival rate.

[8] = system: DNA; test: photoaffinity for DNA in vivo; assay type: cell-based, yeast
[9] = system: mitochondrial DNA; test: induction of "small colony" cytoplasmic mutations; assay type: cell-based, Saccharomyces cerevisiae; conditions: in 10% of the survivors
Protocol: as §1
If the induction of cytoplasmic mutations is considered as a function of the survivors, the compounds 1a and 1b which are monofunctional derivatives of psoralen, show in 10% of the survivors a rate of induction of cytoplasmic mutation greater than 50%.

[10] = system: haploid strain of Saccharomyces cerevisiae yeast; test: induction of nuclear mutations: His+ reversions; assay type: cell-based; conditions: 5×10^-6 M, same survivor rate
Protocol: as §1
The induction of nuclear mutations (reversions and "forward" mutations) has been determined according to procedures described in the above-mentioned articles.

[11] = system: Saccharomyces cerevisiae yeast; test: induction of forward mutations (resistance to canavanine); assay type: cell-based
Protocol: as §1, with “references: […]” for “references:”

[12] = system: synthesis of DNA; test: photosensitizer effect on DNA synthesis in human fibroblasts; assay type: cell-based; conditions: UVA 365 nm
Source text: (§2) (F. Bordin, F. Baccichetti and L. Musajo, Experientia 28, 148 (1972)).
(§3) The cells cultivated in Petri dishes having a minimum Eagle medium with 10% embryonic calf serum were marked by precursors which were specific to the exponential phase of growth. The rates of synthesis were estimated by measuring the incorporation of the radioactive precursors in the acid-precipitable material (see S. Nocentini, Biochim. Biophys., Acta 521, 160 (1978)).

[13] = system: synthesis of RNA; test: photosensitizer effect on RNA synthesis in human fibroblasts; assay type: cell-based; conditions: UVA 365 nm
Source text: as §2, §3

[14] = system: V79 chinese hamster cells; test: antiproliferatory effect: inhibition of colony formation of V79 cells; assay type: cell-based; conditions: 5×10^-6 M
Protocol: The photobiological activity of the two monofunctional componds 1a and 1b have been studied in mammalian cells in vitro in order to determine their antiproliferatory effect.
A diploid strain of V79 chinese hamster cells were used.
The action of the compounds on cell survival (i.e. the antiproliferatory effect) was determined by measuring their power to inhibit the capacity of cells to form colonies. The technique used is that described by C.

[15] = system: normal human skin; test: erythema test on normal human skin (forearm); assay type: in vivo
Protocol: The clinical and therapeutic activity of compounds 1a and 1b has been also measured on human skin. 10 mg of compounds 1a and 1b were diluted in 2 g of a purified lanolin commercially available under the name ROC hydrocerine which was made liquid by heating to 60° C. This local preparation was first tested on normal human skin (of the forearm). An amount of 10 micrograms/cm2 of products 1a and 1b was applied to a circular cutaneous surface 3 cm in diameter. The two products were left on the skin for 2 hours to insure a sufficient cutaneous penetration. […] The same experiment was repeated a second time with irradiation of 20 J/cm2 through a glass plate in order to filter out all the ultraviolet B radiation. […] This erythema, slightly apparent, continued for 18 days. […] The […] result of the reflective photoplethysmograph were totally identical for products 1a and 1b. […] The […] only appeared in doses of irradiation where are twice that customarily used in a therapeutic treatment.

[16] = system: psoriatic plaque; test: therapeutic test on psoriatic plaque, products 1a and 1b; assay type: in vivo, human
Protocol: 10 mg of compounds 1a and 1b were diluted in 2 g of a purified lanolin commercially available under the name ROC hydrocerine which was made liquid by heating to 60° C. Products 1a and 1b have also been tested in the same excipient on a high inflammatory psoriatic plaque. These two products were applied to surfaces having a 3 cm diameter. On a third surface the excipient alone was applied. […] The products and the lanolin alone were applied 2 hours before irradiation. […] This whitening was practically as fast in the zones treated with products 1a and 1b. The zone treated with lanolin alone remained unchanged.

[17] = system: normal skin; test: pigmentogenic properties on normal skin; assay type: in vivo, human; conditions: 0.5%
Source text: The pigmentogenic properties of products 1a and 1b have been tested on normal skin at a concentration of 0.5%.

[18] = mutagenicity (general statements)
[19] = system: yeast mutant pso2; test: sensitivity of yeast mutant pso2 versus wild type to photo-addition
[20] = 10 micrograms/cm2, UVA 20 J/cm2
[21] = 30 micrograms/cm2, by the tenth treatment
[22] = 30 micrograms/cm2, from the fourth treatment

SMILES: O=c1oc2cc3occc3cc2c2ccncc12 [Compound 1a, Pyrido (3,4-c) furo (3,2-g) coumarin]
- formation of cross-links in the DNA (conclusion) [1]: incapable of forming cross-links in the DNA
- coefficient of molecular absorption at 365 nm [2]: notably a higher coefficient of molecular absorption at 365 nm
- photochemical stability [3]: good photochemical stability
- complexation with DNA [4]: considerable complexation
- solubility in the DNA relative to mixture of alcohol and water [4]: at least 10 factor
- induction of biadditions on the DNA [5]: cannot induce biadditions on the DNA
- non-renaturating fraction ([5]; UVA incident dose ranging up to 27 kJ/m2): 100%
- form of DNA after renaturation (cross-links) ([6]; 10^-5 M, 365 nm, two doses (30% and 5% survival rate)): remains in single chain form after renaturation
- functional type (mono/bifunctional) ([6]; pso2 mutant and direct examination of DNA): mono functional type
- photoreactivity compared with 4,5',8-trimethylpsoralen (conclusion) [7]: close to that of 4,5'-8-trimethylpsoralen
- induction of lethal effects compared with 8-MOP ([7]; 5×10^-5 M, 365 nm (UVA)): activity close to that of 8-methoxypsoralen
- activity on cell survival relative to 8-MOP ([7]; 5×10^-6 M, survival curves): 2.5 times
- photodynamic activity (oxygen dependent) on induction of lethal damages ([7]; yeast): do not exert on the yeast photodynamic activity
- photoaffinity for DNA in vivo compared with 3-CPs [8]: makedly much high than that of monofunctional furocoumarin 3-CPs
- photoaffinity for DNA in vivo relative to 8-MOP [8]: about 10 times
- photoaffinity in respect to DNA compared with 8-MOP (conclusion) [8]: markedly greater than that of 8-MOP
- rate of induction of cytoplasmic mutation [9]: greater than 50%
- His+ reversions rate compared with 3-CPs [10]: less than that observed after the treatment with 3-CPs
- His+ reversions rate compared with 8-MOP and 4,5',8-TMeP [10]: very much less than that observed after treatment with the bifunctional agents 8-MOP and 4,5', 8-TMeP
- forward mutations as a function of surviving fractions compared with 3-CPs, 8-MOP and 4,5',8-TMeP [11]: markedly less mutagenic than 3-CPs and the bifunctional compounds 8-MOP and 4,5', 8-TMeP
- forward mutations as a function of UVA doses compared with 3-CPs ([11]; 5×10^-6 M versus 3-CPs at 5×10^-5 M): comparable to those obtained with 3-CPs at 5×10^-5 M
- inhibition capacity (DNA) compared with 3-CPs [12]: much more than 3-CPs
- inhibition capacity (DNA) compared with 8-MOP [12]: slightly more powerful than 8-MOP
- inhibition capacity (RNA) compared with 3-CPs [13]: much more than 3-CPs
- inhibition capacity (RNA) compared with 8-MOP [13]: slightly more powerful than 8-MOP
- LD10 (dose which leaves 10% survive) ([14]; UVA): 1800 J/cm2
- considerable photosensitivity in V79 cells ([14]; UVA): considerable photosensitivity
- relative antiproliferatory effect ([14]; UVA): compared to 8-MOP, a higher antiproliferatory effect; also recorded: comparable to that of bifunctional furocoumarins
- diminution of cell survival in absence of radiation ([14]; no radiation): no diminution of cell survival
- erythema at 5 J/cm2 ([15]; 10 micrograms/cm2, 2 hours before UVA 5 J/cm2): no precocious or delayed erythema was observed
- duration of erythema [15, 20]: 18 days
- time of appearance of erythema [15, 20]: 72 h
- erythema at 20 J/cm2 ([15]; 10 micrograms/cm2, UVA 20 J/cm2 through glass plate): slight erythema
- desquamation or local pain ([15]; UVA 20 J/cm2): no desquamation or local pain
- systolic pulse of the capillaries at erythematic zones (reflective photoplethysmography) ([15]; UVA 20 J/cm2): doubling of the systolic pulse
- erythematogenicity (conclusion) ([15]; in vivo): not erythmatogenic in conditions of irradiation customarily used in human therapy; also recorded: very mildly erythmatogenic
- antipsoriatic action, third patient ([16]; 30 μg/cm2 two hours before UVA): did not have a detectable antipsoriatic action
- erythema or secondary effect during treatments ([16]; 30 micrograms/cm2): no erythema or secondary effect was observed
- hyperpigmentation ([16]; 30 micrograms/cm2): hyperpigmentation was found
- total UVA dose to complete whitening [16, 21]: 50 J/cm2
- whitening of treated zones [16, 21]: complete whitening of the zones treated
- decrease of squamae [16, 22]: slight decrease of the squamae
- reduction of infiltration [16, 22]: tangible reduction of the infiltration
- antipsoriatic activity (conclusion) ([16]; applied locally): good antipsoriatic activity
- pigmentogenic properties, 1b versus 1a [17]: pigmentogenic
- pigmentation of normal skin ([17]; three normal patients, total UVA doses of 140 J/cm2): very slight pigmentation, hardly visible, in only two of the three patients
- mutagenicity compared with 3-carbethoxypsoralen (conclusion) [18]: less mutagenic than 3-carbethoxypsoralen
- photoreactivity on yeast strains [19]: very photoreactive
- sensitivity of pso2 mutant compared with wild type ([19]; photo-addition): same sensitivity as the wild type

— patent US4464354A, “(3,4-c)-Pyrido psoralens, process of preparation, application in cosmetology and therapeutics, and cosmetological and pharmaceutical composition with them” (Institut National de la Sante et de la Recherche Medicale, priority 1982, dated 1984)
